Measured values from patent publication US20050282863A1, “Novel-N substituted dihydrobenzothiepino, dihydrobenzoxepino and tetrahydro benzocyclohepta indoles as selective estrogen receptor modulators” (Council of Scientific & Industrial Research, priority 2004, published 2005).
Where two headings read alike, the source gives them in different places.

How the values were obtained:
[1] = test system: immature ovariectomized rats; experiment: Estrogen agonistic activity: increase in uterine weight in immature ovariectomized rats; format: in vivo, rat; conditions: 3 days, percent of ovariectomized + vehicle group; for change in vivo at 10 mg/kg / change in vivo at 3 mg/kg: Rattus norvegicus, 72 h; for change in vivo at 3 mg/kg: daily dose 3 mg/kg
Description: Twenty-one-day-old immature female rats are bilaterally ovariectomized under light ether anaesthesia and, after post-operative rest for 7 days, are randomized into different treatment groups. Each rat receives the compound of the invention once daily for 3 consecutive days on days 28-30 of age. A separate group of animals receiving only the vehicle for similar duration serves as control. A autopsy 24 h after the last treatment on day 31 of age, vaginal smear of each rat is taken and uterus is carefully exised, gently blotted, weighed and fixed for histology and histomorphometry using image analysis. Premature opening of vagina, cornification of vaginal epitelium, increase in uterine fresh weight, total uterine and endometrial area and uterine luminal epithelial cell height are taken as parameters for evaluation of estrogen agonistic activity in comparision to rats of vehicle control group.

[2] = test system: immature ovariectomized rats; experiment: Estrogen antagonistic activity: inhibition in 17α-ethynylestradiol induced uterine weight gain in immature ovariectomized rats; format: in vivo, rat; conditions: daily dose 10 mg/kg with 0.02 mg/kg 17-alfa-ethynylestradiol, 3 days; for inhibition in vivo at 10 mg/kg/day: Rattus norvegicus, 72 h, read-out: Percent inhibition in 17α-ethynylestradiol induced uterine weight gain
Description: Twenty-one-day-old immature female rats are bilaterally ovariectomized under light ether anaesthesia and after post-operative rest for 7 days, are randomized into different treatment groups. Each rat receives the compounds of the invention and 0.02 mg/kg dose of 17-alfa-ethynylestradiol in 10% ethanol-distilled water once daily for 3 consecutive days on days 28-30 of age. A separate group of animals receiving only 17-alfa-ethynylestradiol (0.02 mg/kg) in 10% ethanol-distilled water for similar duration are used for comparison. At autopsy on day 31 of age, vaginal smear of each rat is taken and uterus is carefully excised, gently blotted, weighed and fixed for histology and histomorphometry using image analysis. Inhibition in 17-alfa-ethynylestradiol-induced premature opening of vagina, cornification of vaginal epithelium, increase in uterine fresh weight, total uterine and endometrial area and uterine luminal epithelial cell height are taken as parameters for evaluation of estrogen antagonistic activity.

[3] = target: T1, estrogen receptors (Rattus norvegicus, UniProt P06211); experiment: Relative binding affinity (RBA) to estrogen receptors, 3H-estradiol competition assay; design: key: % of 17-beta-estradiol binding affinity (estradiol = 100); conditions: relative to 17-beta-estradiol (=100, percentage value); rat uterine cytosol, 3H-E2, 18 hrs at 4° C.
T1 construct: Aliquot of uterine cytosol (200 μl; 2 uteri per ml) prepared in TEA buffer; from tissue; host or cells: uterine cytosol of immature estradiol-primed 20-21 day old rats
T1 sequence (P06211 1-600): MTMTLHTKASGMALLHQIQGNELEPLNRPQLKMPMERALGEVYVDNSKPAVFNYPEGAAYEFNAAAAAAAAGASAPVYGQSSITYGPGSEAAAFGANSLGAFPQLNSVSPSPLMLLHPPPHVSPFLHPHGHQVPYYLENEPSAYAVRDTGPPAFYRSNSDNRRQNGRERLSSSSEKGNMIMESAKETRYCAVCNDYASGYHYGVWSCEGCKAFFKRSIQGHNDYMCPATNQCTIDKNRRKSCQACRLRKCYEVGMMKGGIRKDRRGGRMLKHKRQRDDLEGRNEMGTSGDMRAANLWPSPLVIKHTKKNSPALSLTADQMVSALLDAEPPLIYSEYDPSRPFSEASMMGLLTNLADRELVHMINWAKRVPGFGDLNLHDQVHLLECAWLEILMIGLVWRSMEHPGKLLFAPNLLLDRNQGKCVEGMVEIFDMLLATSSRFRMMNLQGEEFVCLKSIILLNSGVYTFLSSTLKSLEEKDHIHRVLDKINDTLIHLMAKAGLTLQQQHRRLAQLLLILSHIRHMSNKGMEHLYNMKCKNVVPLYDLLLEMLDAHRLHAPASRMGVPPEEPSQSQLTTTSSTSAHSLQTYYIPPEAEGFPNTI
Description: The relative binding affinity (RBA) of the compounds for estrogen receptor is determined by competition assay, employing ^3H-estradiol (^3H-E2) as the radioligand. The test ligands and ^3H-E2 are incubated at 4° C. with cystol estrogen receptors obtained from uteri of immature estradoil-primed (1 μg/rat 24 h before autopsy) 20-21 days old rats. Aliquot of uterine cytosol (200 μl; 2 uteri per ml) prepared in TEA buffer (10 mM Tris, 1.5 mM EDTA, 0.02% sodium azide, pH 7.4) are incubated in duplicate with a fixed concentration of ^3H-E2 in the absence or presence of various concentrations of the competitor substance dissolved in 30 μl of the TEA buffer containing DMF as co-solvent (final concentration of DMF in the incubation mixture never exceeded 5%) for 18 hrs at 4° C. At the end of this period, dextran coated charcoal (5% Norit 0.5% dextran) suspension in 100 μl of TEA buffer is added to each tube, briefly vortexed and allowed to stand for 15 minutes at 4° C. The mixture is centrifuged at 800 g for 10 minutes and the supernatants counted for radioactivity in 10 ml of a dioxane-based scintillation fluid. RBA of the text compound is computed from a graph plotted between percent bound radioactivity verses log concentration of the test substance. […] This when multiplied with 100 gives the percentage value designated as RBA.

[4] = test system: chick fetal bones in culture; experiment: Inhibition in PTH-induced resorption of 45Ca from chick fetal bones in culture (antiresorptive activity in vitro); format: cell-based; conditions: Gallus gallus, 96 h, 100 μM; PTH-induced 45Ca resorption, 96 h culture; read-out: T/C ratio
Description: 5 μl of each concentration are used for evaluation of antiresorptive activity in vitro. In control experiments, 5 μl of appropriate solvent is used in lieu of the test compound. Femur bones are isolated from chick embryos on day 11 post-ovulation. The adhering soft connective tissue is completely removed. Each femur bone is then placed in a drop of phosphate buffered saline (PBS) and is transferred to BGJb culture medium containing ^45CaCl2 and incubated for 2 h. Labeled femur bones are washed 2-3 times with PBS and transferred to BGJb medium containing parathyroid hormone and cultured for 96 h in the presence or absence of the compound of invention or the vehicle in BGJb medium. Contralateral femur of each fetus serves as corresponding control. Culture medium with the respective treatment in each well is changed after 48 h. On termination of the culture at 96 h, bones are transferred to 0.1 N HCl for 24 h. Radioactivity due to ^45Ca in the spent medium collected at 48 and 96 h of culture and HCl extract at 96 h of culture is quantified by Liquid Scintillation Spectrophotometer in 10 ml of the scintillation fluid. Bone resorbing activity is expressed as percentage of ^45Ca released into the culture medium and the effect of the compound of invention as percent of the corresponding contra-lateral control or T/C ratio as shown below: [formula]
Appropriate solvents are selected from solvents like water, physiological saline, phosphate buffered saline, phosphate buffer, DMSO alone or in a suitable combination thereof.

[5] = test system: adult female rats; experiment: Post-coital antifertility efficacy in adult female rats; format: in vivo, rat; conditions: oral; for responders at 10 mg/kg: Rattus norvegicus, 240 h
Excerpt: Adult female rats are caged overnight with coeval males of proven fertility and their vaginal smears are checked on the following morning. The day of presence of spermatozoa in the vaginal smear is taken as day 1 of pregnancy. Mated rats are isolated and randomized into various treatment groups and treated orally with the compound of invention or the vehicle on days 1-7/1-5 post-coitum. Animals of all the groups are autopsied on day 10 post-coitum and number and status of corpora lutea and implantation sites in each rat are recorded. The compounds of the present invention are considered active if there is complete absence of implantations in the uterus of all rats, in comparison to presence of normal implantations in the uterus of rats of vehicle control group.

[6] = test system: MCF-7 cells; experiment: Antiproliferative/cytotoxic activity in cultured MCF-7 cells (SRB assay); format: cell-based; conditions: Homo sapiens, MCF7, 48 h, MCF-7, 48 h
Description: The procedure is based on the following methods: New calorimetric assay for anticancer drug screening, Skehan et al., J Natn Cancer Inst, 82,1107, 1990 and Feasibility of a high-flux anticancer drug screen using a diverse panel of cultured human tumor cell lines, J Natn Cancer Inst, 83,757, 1991.
A fully confluent flask of MCF-7 cells in trypsinized and 10^4 cells/well are plated in a 96 welled flat bottomed plate in 200 μl Minimum Essential Medium (MEM), pH 7.4 and allowed to attach for 24 h at 37° C. in a humidified CO2 incubator. Subsequently, the compound of invention dissolved in DMSO or ethanol is added at a specified concentration and further incubated for 48 h as before. The cells are then fixed in 50 μl cold 50% TCA and incubated for 1 h at 4° C. The supernatant is discarded and the plate is washed five times with deionized water and air-dried. 100 μl of 0.4% (w/v) Sulforhodamine B (SRB) in 1% acetic acid is added to each well and incubated at room temperature for 30 minutes. Unbound SRB is removed by five washes with chilled 1% acetic acid and the plate is air-dried. 200 μl of unbuffered 10 mM Tris base is added to solublize the bound stain for 5 minutes at room temperature and O.D. is read at 560 nm in a plate reader. The graph is plotted between O.D. and concentration and LC50 is calculated with respect to tamoxifen, which is used as a positive control.

[7] = daily dose 10 mg/kg, days 1-7 post-coitum

Compound | RBA [3] | activity at 100 µM [4] [%] | % Efficacy [5, 7] | change in vivo at 10 mg/kg ([1]; daily dose 10 mg/kg) [%] | inhibition in vivo at 10 mg/kg/day [2] [%] | CC50 ([6]; read-out: LC50, Test-4) [µM] | further results
CCCCN(C)CCCCCn1c2c(c3ccccc31)CCSc1ccccc1-2.O=C(O)/C=C/C(=O)O [Example number 16, 12-[5-(N-butylmethylamino)pentyl]-6,7-dihydro-12H-benzothiepino [5,4-b]indole fumaric acid Salt] | <0.001 | – | – | – | – | – | Percent increase in uterine weight ([1]; daily dose 10 mg/kg): 2.00%; Percent inhibition in 17α-ethynylestradiol induced uterine weight gain [2]: 2.00%
c1ccc2c(c1)OCCc1c-2n(Cc2ccc(OCCN3CCCCC3)cc2)c2ccccc12 [Example number 56, 12-[4-(2-Piperidin-1-yl-ethoxy)benzyl]-6,7-dihydro-12H-benzoxepino[5,4-b]indole] | – | 103 | Inactive | 15.4 | 12.8 | – | –
Oc1ccc2c(c1)SCCc1c-2n(CCCCCN2CCCCC2)c2ccccc12 [Example number 24, 3-Hydroxy-12-[5-(piperidine-1-yl)pentyl]-6,7-dihydro-12H-benzothiepino [5,4-b]indole] | 10.75 | 78 | Inactive | – | – | 27 | –
c1ccc2c(c1)SCCc1c-2n(CCCCCN2CCCC2)c2ccccc12 [Example number 12, 12-[5-(Pyrrolidine-1-yl)pentyl]-6,7-dihydro-12H-benzothiepino [5,4-b]indole] | 0.88 | 78 | Inactive | – | – | – | CC50 ([6]; read-out: LC50, Test-1): 63 µM; change in vivo at 3 mg/kg [1]: 3.4%
Oc1ccc2c(c1)SCCc1c-2n(CCCCCN2CCCC2)c2ccc(O)cc12 [Example number 36, 3,9-Dihydroxy-12-[5-(pyrrolidine-1-yl)pentyl]-6,7-dihydro-12H-benzothiepino [5,4-b]indole] | <0.001 | 118 | – | – | – | 60 | –
c1ccc2c(c1)OCCc1c-2n(CCCCCCN2CCCCC2)c2ccccc12 [Example number 51, 12-[6-(Piperidine-1-yl)hexyl]-6,7-dihydro-12H-benzoxepino[5,4-b]indole] | 0.059 | – | Inactive | 20 | 14 | – | CC50 ([6]; read-out: LC50, Test-1): 22.3 µM; CC50 ([6]; read-out: LC50, Test-3): 12.8 µM; change in vivo at 3 mg/kg [1]: 21.9%
Oc1ccc2c(c1)SCCc1c-2n(CCCCCN2CCCCC2)c2ccc(O)cc12 [Example number 35, 3,9-Dihydroxy-12-[5-(piperidine-1-yl)pentyl]-6,7-dihydro-12H-benzothiepino [5,4-b]indole] | <0.001 | 99 | Inactive | – | – | 40 | –
c1ccc2c(c1)SCCc1c-2n(CCCCCN2CCCCC2)c2ccccc12 [Example number 11, 12-[5-(Piperidine-1-yl)pentyl]-6,7-dihydro-12H-benzothiepino [5,4-b]indole] | – | 77 | – | 50 | 2 | 8.3 | responders at 10 mg/kg [5, 7]: 50%
c1ccc2c(c1)OCCc1c-2n(CCCCCN2CCCCC2)c2ccccc12 [Example number 49, 12-[5-(Piperidine-1-yl)pentyl]-6,7-dihydro-12H-benzoxepino[5,4-b]indole] | – | 63 | – | – | – | – | responders at 10 mg/kg [5, 7]: 100%; % Efficacy ([5]; daily dose 5 mg/kg, days 1-5 post-coitum): Inactive
c1ccc2c(c1)SCCc1c-2n(Cc2ccc(OCCN3CCCCC3)cc2)c2ccccc12 [Example number 39, 12-[4-(2-Piperidin-1-yl-ethoxy)benzyl]-6,7-dihydro-12H-benzothiepino [5,4-b]indole] | – | 85 | Inactive | 83.3 | 3.7 | – | –
